Data: PMC5956019, “A rapid solution-based method for determining the affinity of heroin hapten-induced antibodies to heroin, its metabolites, and other opioids” (Analytical and Bioanalytical Chemistry, 2018)
Read-outs that look alike come from different tables or passages of the source.

Experiments:
6-AmHap-Abs [1] = type: binding, mouse; conditions: for Ki: read-out: Heterologous MST Ki; for IC50: read-out: Heterologous MST IC50
Method: The final concentrations of 6-AmHap-Abs, MorHap-Cy5 in the capillaries were 10 nM and 0.25 nM, respectively. The same procedure was performed for the binding of the 6-AmHap-Abs to the other drugs but different concentrations of competitor working solutions were used.
For the heroin-binding assay in the presence of esterase inhibitors, a working solution containing 6-AmHap antibody (40 nM) and 80 μM iso-OMPA/80 μM BNPP was incubated for 2 h at RT. An equal volume of MorHap-Cy5 (1 nM) was then mixed with the 6-AmHap-Abs/iso-OMPA/BNPP mixture and the reaction mixture was further incubated for 20 min in the dark at RT. The rest of the procedure was performed as described above. The final concentrations of 6-AmHap-Abs, iso-OMPA/BNPP, and MorHap-Cy5 in the capillaries were 10 nM, 20 μM/20 μM, and 0.25 nM, respectively.
(§1) The MST measurements were done on a Monolith™ NT.115^Pico instrument from NanoTemper Technologies GmbH. The instrument was equipped with an IR laser (wavelength, 1475 ± 15 nm; power, 120 mW maximum) and a red fluorescence channel that can detect red dyes, such as Cy5 and Alexa Fluor 647. The samples were measured at an LED power of 20% and an MST power of 25% with a laser-on time of 30 s and a laser-off time of 5 s. MST measurements of 15–16 samples typically take ~ 20 min.
In the competition MST procedures, a constant concentration of MorHap-Cy5:antibody complex was titrated with an increasing concentration of drug competitor. […] The software plots Fnorm against 15–16 increasing drug competitor concentration points to yield the binding curve, and subsequently fits the curve to obtain the IC50. For presentation purposes, the fraction bound was manually calculated and plotted using the equation above where x is the Fnorm at a given competitor concentration. The binding affinities (Ki) from the heterologous MST assays were then derived using the Ki-Finder software from the Nanotemper website. In order to calculate the Ki, the following parameters must be entered into the Ki-Finder website: the binding affinity of the tracer against the antibody (Kd), the concentration of the antibody (I0), the concentration of the tracer (labeled T0), the highest concentration of the competitor (L0), and the IC50 of the competitor to the antibody. The website then plots both the binding curve and competition curve to produce the competitor Ki, also known as the Kd of the antibody to the drug competitor.

[2] = degradation of heroin in humans, Fig. 1a; cited from earlier work
6-AmHap-Abs [3] = conditions: ref Sulima et al [3]; read-out: Competition ELISA Homologous, IC50; cited from earlier work
6-AmHap-Abs [4] = type: binding, mouse; conditions: read-out: Competition ELISA Heterologous, IC50
6-AmHap-Abs [5] = type: binding, mouse; conditions: read-out: Kd of 6-AmHap-Abs derived from ED-UPLC/MS/MS; post-immune serum diluted 1:1600, 5 nM D3-tracer
Method: Post-immune sera (week 8) from the mouse study described by Sulima et al. [12] were used in this study. […] Briefly, post-immune serum was diluted in DPBS (1:1600). Dialysis buffer was prepared by diluting the corresponding pre-immune serum (week 0) in DPBS (1:1600). […] A 100-μL dilution of week 8 serum containing 5 nM D3-tracer was pipetted into the sample chamber, and a 300-μL aliquot of the competitive inhibitor solution was added to the buffer chamber. Both week 8 and week 0 were run against each other at the same sera dilutions. For negative controls, the same setup was employed except both sides of the dialysis chamber contained only week 0 serum. Equilibrium dialysis, preparation of samples for UPLC/MS/MS, and calculation of Kd were performed as described [13].
The antibody binding site concentration was derived from Müller’s equation [17] and was calculated using the following formula: Abt=bTt+b×Kd/1−b where [Abt] is the total concentration of the antibody binding sites, b is the fraction of bound D3-tracer in the absence of competitive inhibitor, [Tt] is the total molar concentration of the D3-tracer after equilibrium, and Kd is the apparent dissociation constant.

[6] = target: Anti-morphine antibody (ab1060); type: binding, mouse; conditions: 0.25 nM MorHap-Cy5, 10 nM ab1060, 4000 nM competitor
Method: as §1
In the competition MST procedures, a constant concentration of MorHap-Cy5:antibody complex was titrated with an increasing concentration of drug competitor. […] The software plots Fnorm against 15–16 increasing drug competitor concentration points to yield the binding curve, and subsequently fits the curve to obtain the IC50. For presentation purposes, the fraction bound was manually calculated and plotted using the equation above where x is the Fnorm at a given competitor concentration. The binding affinities (Ki) from the heterologous MST assays were then derived using the Ki-Finder software from the Nanotemper website. […]

[7] = 0.25 nM MorHap-Cy5, 10 nM antibody binding sites, without esterase inhibitors, […]
[8] = 0.25 nM MorHap-Cy5, 10 nM antibody binding sites, without esterase inhibitors

6-acetylmorphine [6-AM]
Ki (6-AmHap-Abs [1]; [7]): 0.44 ± 0.33 nM
IC50 (6-AmHap-Abs [1]; [8]): 6.75 ± 1.17 nM
t1/2 [2]: 0.367 to 0.433 h
IC50 (6-AmHap-Abs [3]): 3720 ± 700 nM
IC50 (6-AmHap-Abs [4]): 19.8 ± 6.33 nM
Kd (6-AmHap-Abs [5]): 0.53 ± 0.28 nM

CN1CC[C@]23c4c5ccc(O)c4O[C@H]2[C@@H](O)C=C[C@H]3[C@H]1C5O (stereo partly drawn) [10-Hydroxymorphine, 10-hydroxymorphine]
Ki (6-AmHap-Abs [1]; [7]): 18.4 ± 5.78 nM
IC50 (6-AmHap-Abs [1]; [8]): 51.2 ± 0.72 nM

CC(=O)Nc1ccccc1 [Acetanilide, acetanilide]
Heterologous MST IC50 (6-AmHap-Abs [1]; [8]): No binding
Heterologous MST Ki (6-AmHap-Abs [1]; [7]): No binding
Heterologous MST Ki (6-AmHap-Abs [1]; 0.25 nM MorHap-Cy5, 10 nM antibody binding sites, without esterase inhibitors, […], listed as acetanilide): Neither acetanilide nor N-methylpiperidine bound

CN1CC[C@]23c4c5ccc(O)c4O[C@H]2CCC[C@H]3[C@H]1C5 [Desomorphine, desomorphine]
IC50 (6-AmHap-Abs [1]): 9.07 ± 0.73 nM
Ki (6-AmHap-Abs [1]): 0.9 ± 0.64 nM

CN1CC[C@]23CCCC[C@H]2[C@H]1Cc1ccc(O)cc13 [Levorphanol, levorphanol]
Ki (6-AmHap-Abs [1]; [7]): 11.6 ± 4.41 nM
IC50 (6-AmHap-Abs [1]; [8]): 33.7 ± 0.91 nM
IC50 (6-AmHap-Abs [3]): 3390 ± 900 nM
IC50 (6-AmHap-Abs [4]): 341 ± 138 nM

CN1CC[C@]23c4c5ccc(O[C@@H]6O[C@H](C(=O)O)[C@@H](O)[C@H](O)[C@H]6O)c4O[C@H]2[C@@H](O)C=C[C@H]3[C@H]1C5 [M-3G, morphine-3-β-glucuronide]
Ki (6-AmHap-Abs [1]; [7]): 27.9 ± 4.14 nM
IC50 (6-AmHap-Abs [1]; [8]): 69.1 ± 1.24 nM
t1/2 [2]: 4.5 h
IC50 (6-AmHap-Abs [3]): 28000 ± 11400 nM
IC50 (6-AmHap-Abs [4]): 23.2 ± 7.33 nM

CN1CC[C@]23c4c5ccc(O)c4O[C@H]2[C@@H](O[C@@H]2O[C@H](C(=O)O)[C@@H](O)[C@H](O)[C@H]2O)C=C[C@H]3[C@H]1C5 [M-6G, morphine-6-β-glucuronide]
Ki (6-AmHap-Abs [1]; [7]): 0.66 ± 0.9 nM
IC50 (6-AmHap-Abs [1]; [8]): 5.88 ± 1.22 nM
t1/2 [2]: 4.60 h
IC50 (6-AmHap-Abs [3]): 25000 ± 12100 nM
IC50 (6-AmHap-Abs [4]): 11.3 ± 2.16 nM

CN1CC[C@]23c4c5ccc(O)c4O[C@H]2[C@H](NC(=O)CCSCC(N)=O)C=C[C@H]3[C@H]1C5 [MorHap-acetamide]
Ki [6]: 14 ± 7.97 nM

C[N+]1([O-])CC[C@]23c4c5ccc(O)c4O[C@H]2[C@@H](O)C=C[C@H]3[C@H]1C5 (stereo partly drawn) [Morphine N-Oxide, morphine N-oxide]
Ki (6-AmHap-Abs [1]; [7]): 6460 ± 4780 nM
IC50 (6-AmHap-Abs [1]; [8]): 12651 ± 1.33 nM

CN1CCCCC1 [N-Methylpiperidine, N-methylpiperidine]
Heterologous MST IC50 (6-AmHap-Abs [1]; [8]): No binding
Heterologous MST Ki (6-AmHap-Abs [1]; [7]): No binding
Heterologous MST Ki (6-AmHap-Abs [1]; 0.25 nM MorHap-Cy5, 10 nM antibody binding sites, without esterase inhibitors, […], listed as N-methylpiperidine): Neither acetanilide nor N-methylpiperidine bound

C=CCN1CC[C@]23c4c5ccc(O)c4O[C@H]2[C@@H](O)C=C[C@H]3[C@H]1C5 [Nalorphine, nalorphine]
Ki (6-AmHap-Abs [1]; [7]): 2.93 ± 0.98 nM
IC50 (6-AmHap-Abs [1]; [8]): 10.6 ± 0.89 nM

Oc1ccc2c3c1O[C@H]1[C@@H](O)C=C[C@H]4[C@@H](C2)NCC[C@@]341 [Normorphine, normorphine]
Ki (6-AmHap-Abs [1]; [7]): 55.1 ± 7.58 nM
IC50 (6-AmHap-Abs [1]; [8]): 136 ± 0.94 nM
IC50 (6-AmHap-Abs [3]): 112000 ± 22300 nM
IC50 (6-AmHap-Abs [4]): 3220 ± 2000 nM

CN1CC[C@]23c4c5ccc(O)c4O[C@H]2C(=O)CC[C@@]3(O)[C@H]1C5 [Oxymorphone, oxymorphone]
Ki (6-AmHap-Abs [1]; [7]): 251 ± 7 nM
IC50 (6-AmHap-Abs [1]; [8]): 598.1 ± 0.95 nM
IC50 (6-AmHap-Abs [3]): 125000 ± 28600 nM
IC50 (6-AmHap-Abs [4]): 2430 ± 864 nM

COC1=CC=C2[C@H]3Cc4ccc(OC)c5c4[C@@]2(CCN3C)[C@H]1O5 [Thebaine, thebaine]
Ki (6-AmHap-Abs [1]; [7]): 13.1 ± 5.47 nM
IC50 (6-AmHap-Abs [1]; [8]): 35.6 ± 0.91 nM
